Patent publication US20240376163A1, “PEPTIDE FOR INHIBITING CALCINEURIN AND USE THEREOF” (Seoul National University R&DB Foundation, priority 2023, published 2024)

Legend:
[1] = system: NFAT transcriptional activity; experiment: NFAT luciferase reporter assay in Jurkat T cells expressing GST-tagged peptides; assay type: cell-based; conditions: PMA and ionomycin treatment
Method: To measure the transcriptional activity of NFAT, Jurkat T cells were cotransfected with GST-tagged peptides and NFAT-luc by electroporation. After 24 hours, the cells were pretreated with 0.5 μM FK506 for 1 hour and then treated with 40 nM PMA and 1 μM ionomycin for 8 hours. For mammalian two-hybrid assay, HEK293T cells were cotransfected with GAL4 DBD-tagged CABIN1, VIVIT, chimeric, and substituted peptides, VP16 activation domain-tagged CNAβ2, and pG5-luc (a luciferase reporter plasmid containing the GAL4 reaction promoter) for 24 hours. Harvested cells were lysed with luciferase assay lysis buffer (17 mM KH2PO4, 183 mM K2HPO4, pH 7.8, 0.2% [v/v] Triton X-100) and sonicated briefly. The luciferase activity against each cell lysate was measured using Infinite M200 (Tecan, Männedorf, and Switzerland). In addition, the expression level of the transfected protein was confirmed by Western blotting.

NFATC2 = experiment: NFAT mobility shifting assay in Jurkat T cells; assay type: cell-based; conditions: PMA and ionomycin
Method: In FIG. 2A, a luciferase reporter assay was performed to measure NFAT transcriptional activity. Jurkat T cells expressing GST-tagged peptides were treated with PMA and ionomycin for activation. Jurkat T cells expressing only GST were used as negative controls, and cells treated with 0.5 μM FK506 were used as positive controls (n=3). In FIG. 2B, an NFAT mobility shifting assay was performed using Jurkat T cells expressing HA-mCherry-tagged peptides. For dephosphorylation of NFATC2, Jurkat T cells were treated with PMA and ionomycin for 2 hours. In FIG. 2C, the hyperphosphorylated and hypophosphorylated NFATC2 of FIG. 2B was measured using ImageJ, and the hypo/hyper ratio was calculated (n=7). In FIG. 2D, snapshot images of the indicated peptides and activated Jurkat T cells expressing tNFATC2 were obtained using a confocal microscope. Expression and intracellular localization of peptides and tNFATC2 are indicated by mCherry (red) and EGFP (green), respectively. […] In FIG. 2E, tNFATC2 located in the nucleus was measured by calculating a ratio at which Hoechst (M1) and EGFP (M2) were present together. […] The data were repeated independently as many times as described and are expressed as means±standard deviation. Statistical differences were determined using two-sided Student's t-test (A, C) or one-way analysis of variance (E). *** p<0.001, NC: negative control. […]

ERK2 = target: T1, ERK2 (Homo sapiens, UniProt P28482); experiment: In vitro kinase assay; assay type: biochemical; conditions: purified GST-tagged peptide
T1 construct: purchased Proqinase GmbH (Freiburg, Germany)
T1 sequence (P28482 whole entry): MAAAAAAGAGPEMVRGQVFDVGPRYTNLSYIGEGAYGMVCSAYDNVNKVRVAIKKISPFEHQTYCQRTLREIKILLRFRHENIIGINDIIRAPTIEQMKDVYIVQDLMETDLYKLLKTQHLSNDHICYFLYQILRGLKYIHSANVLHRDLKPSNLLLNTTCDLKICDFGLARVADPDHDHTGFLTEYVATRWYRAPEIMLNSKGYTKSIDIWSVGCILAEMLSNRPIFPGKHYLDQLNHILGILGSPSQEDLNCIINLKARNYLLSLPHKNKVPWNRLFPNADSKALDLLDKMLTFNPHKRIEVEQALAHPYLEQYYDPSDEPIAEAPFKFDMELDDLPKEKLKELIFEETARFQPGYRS
Method: (§1) Purified GST-tagged peptides were used for the in vitro kinase assay using activated recombinant kinase obtained from Proqinase GmbH (Freiburg, Germany). Kinase reactions were induced in reaction buffer (50 mM HEPES-NaOH, pH 7.5, 3 mM MgCl2, 3 mM MnCl2, 3 μM sodium orthobanadate, 1 mM dithiothreitol, 50 μM unlabeled ATP, 5 μCi 32P-γ-ATP) for 1 hour at 30° C. The reaction was stopped by the addition of 5× sample buffer, and proteins were isolated using SDS-PAGE. The gels were stained with Coomassie Brilliant Blue, dried, and developed on X-ray film.

p38a = p38a (Homo sapiens, UniProt Q16539); experiment: In vitro kinase assay; assay type: biochemical; conditions: purified GST-tagged peptide
Chain of p38a (Q16539 whole entry): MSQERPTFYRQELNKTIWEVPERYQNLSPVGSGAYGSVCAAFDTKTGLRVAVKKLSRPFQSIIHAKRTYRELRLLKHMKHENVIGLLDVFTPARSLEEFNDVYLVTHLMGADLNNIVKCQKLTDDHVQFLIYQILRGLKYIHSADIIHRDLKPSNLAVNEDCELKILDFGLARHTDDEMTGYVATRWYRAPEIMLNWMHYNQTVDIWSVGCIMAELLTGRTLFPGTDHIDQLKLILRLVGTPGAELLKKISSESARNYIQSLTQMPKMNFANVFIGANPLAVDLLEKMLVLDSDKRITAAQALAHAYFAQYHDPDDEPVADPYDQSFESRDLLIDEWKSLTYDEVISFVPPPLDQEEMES
Method: as §1

JNK1 = target: T2, JNK1 (Homo sapiens, UniProt P45983); experiment: In vitro kinase assay; assay type: biochemical; conditions: purified GST-tagged peptide
T2 construct: purchased Proqinase GmbH (Freiburg, Germany)
T2 sequence (P45983 whole entry): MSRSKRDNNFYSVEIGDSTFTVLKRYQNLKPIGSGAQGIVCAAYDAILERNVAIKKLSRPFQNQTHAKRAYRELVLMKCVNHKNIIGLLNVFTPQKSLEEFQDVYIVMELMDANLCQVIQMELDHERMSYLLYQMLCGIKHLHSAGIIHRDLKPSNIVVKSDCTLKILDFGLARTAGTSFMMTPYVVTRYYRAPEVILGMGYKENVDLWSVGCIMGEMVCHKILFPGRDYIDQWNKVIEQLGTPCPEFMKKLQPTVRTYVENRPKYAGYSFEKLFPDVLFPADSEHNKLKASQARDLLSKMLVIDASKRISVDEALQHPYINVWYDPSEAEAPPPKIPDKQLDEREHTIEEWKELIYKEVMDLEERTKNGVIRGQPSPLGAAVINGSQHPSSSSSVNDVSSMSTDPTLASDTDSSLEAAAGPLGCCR
Method: as §1

Jurkat T cells = experiment: Real-time quantitative PCR of T-cell activation genes in Jurkat T cells; assay type: cell-based
Method: Jurkat T cells were collected by QIAzol Lysis Reagent (Qiagen) to extract total RNA. cDNA was reverse transcribed from the isolated RNA using AMV Reverse Transcriptase and random hexamers. Real-time quantitative PCR for each cDNA was performed using TB Green® Premix Ex Taq™ (TaKaRa, Kusatsu, Japan) in the CFX Connect Real-time PCR Detection System (Bio-Rad, Hercules, CA, USA), and normalized to expression of 18S rRNA or GAPDH.

His6-tagged CNA = experiment: In vitro peptide competition assay; assay type: binding; conditions: VIVIT 15-mer and CABIN1-L-1 peptide, molar ratio 1:50 to 1:400
Method: In FIG. 4A, an in vitro peptide competition assay was performed using VIVIT 15-mer and CABIN1-L-1 peptide in a dose-dependent manner. The molar ratio of GST-tagged peptide to competing peptide ranged from 1:50 to 1:400. In FIG. 4B, a mammalian two-hybrid assay was performed using VP16 AD-CNAβ2 and GAL4 DBD-peptide in HEK293T cells treated or not-treated with 1 μM ionomycin. The pM empty vector was used as a negative control. In FIG. 4C, a calcineurin cellular activity assay was performed using Jurkat T cells expressing HA-mCherry-tagged peptides. Jurkat T cells expressing only HA-mCherry were used as negative controls, and cells treated with FK506 were used as positive controls. […] Purified GST was used as a negative control. All experiments were repeated three times, and data were expressed as mean±standard deviation. Statistical differences were determined using one-way analysis of variance. * p<0.05, NS: no statistical significance, NC: negative control.

calcineurin = experiment: Calcineurin cellular activity assay in Jurkat T cells; assay type: cell-based; conditions: Jurkat T cells expressing peptide or treated with FK506
Method: Calcineurin phosphatase activity was measured in vitro using the Calcineurin phosphatase assay kit (BML-AK804, Enzo Life Sciences, Farmingdale, NY, USA). GST or GST-tagged peptides were cultured with CNA for 30 min at room temperature and then performed according to the manufacturer's instructions. Jurkat T cells were transiently transfected with CAG-HA-mCherry-peptide by electroporation endogenous calcineurin phosphatase activity. After 24 hours, the Jurkat T cells were pretreated with FK506 for 1 hour before activation with PMA and ionomycin. Thereafter, the cells were washed with TBS buffer (20 mM Tris, pH 7.2, 150 mM NaCl), resuspended with lysis buffer in a calcineurin cell activity assay kit (BML-AK816, Enzo Life Sciences), and stored on ice for 30 min. Lysate supernatants were collected by gel filtration using Desaltting Column Resin included in the kit, free phosphate was removed, and performed according to the manufacturer's instructions.

## PEITVTPPTP [CABIN1-L-1-2]
[1]
  NFAT transcriptional activity (luciferase activity): inhibited luciferase activity compared to the negative control
  inhibitory effect on NFAT luciferase activity relative to VIVIT peptide: approximately 4 times
NFATC2
  NFATC2 band shift (dephosphorylation): significantly inhibited NFATC2 band shift
ERK2
  phosphorylation by ERK2: phosphorylate
p38a
  phosphorylation by p38a: phosphorylate
JNK1
  phosphorylation by JNK1: phosphorylate
Jurkat T cells
  RNA levels of T-cell activation genes by qRT-PCR: reduced RNA levels of these genes more effectively than VIVIT peptides
His6-tagged CNA
  competition for CNA binding: dose-dependently interfered with the interaction between GST-tagged VIVIT peptide and His6-tagged CNA

## C=CC[C@@H]1/C=C(\C)C[C@H](C)C[C@H](OC)[C@H]2O[C@@](O)(C(=O)C(=O)N3CCCC[C@H]3C(=O)O[C@H](/C(C)=C/[C@@H]3CC[C@@H](O)[C@H](OC)C3)[C@H](C)[C@@H](O)CC1=O)[C@H](C)C[C@@H]2OC [FK506, Tacrolimus, reference compound]
calcineurin
  calcineurin phosphatase activity in cells: reduced the phosphatase activity of CNA
NFATC2
  NFATC2 band shift (dephosphorylation): significantly inhibited NFATC2 band shift
